Where two headings read alike, the source gives them in different places.
Columns and labels:
SNP cells = experiment: Effect of a pan-caspase inhibitor on G-Ce6-PDT-induced cell death; format: cell-based, canine; conditions: 8 μg/mL G-Ce6; 10 μM Z-VAD-FMK; 5 J/cm^2
Procedure: SNP cells were incubated with 8 μg/mL G-Ce6 for 24 h in the presence (10 μM) or absence of Z-VAD-FMK (Medical & Biological Laboratories Co. Ltd., Aichi, Japan), which is a pan-caspase inhibitor. After washing with fresh media, the cells were irradiated with 650-nm laser light (10 mW/cm^2, 5 J/cm^2) emitted by a semiconductor laser, using an optical fiber with a microlens delivery attachment. Apoptosis was assessed at 4 h after laser irradiation using the Muse Annexin V and Dead Cell Assay kit.

SNP tumors = experiment: Histological examination of SNP tumors after PDT (H&E); format: in vivo, NOD/ShiJic-scidJcl mice
Procedure: To examine PDT-induced histological changes in the tumor tissue and surrounding normal tissue, animals were sacrificed via cervical dislocation, and the tumors were harvested at 24 h after PDT. The tumor tissues were fixed in 10% buffered formalin and embedded in paraffin. Tumor sections were cut at a thickness of 4 μm, stained with hematoxylin & eosin (H&E), and examined under a light microscope (Olympus BX51).

[1] = Pharmacokinetics after intravenous administration in healthy dogs; format: in vivo; conditions: beagle, dog, plasma, i.v.; for Vd: read-out: Vdss
Procedure: (§1) The animal protocol using healthy beagle dogs was approved by the Animal Research Committee of the Tottori University (project number: 17-T-3). For the pharmacokinetic crossover study, 6, 3, and 1 healthy beagle dogs were intravenously administered G-Ce6 at a dose of 2, 5, and 20 mg/kg, respectively. The ages of the healthy dogs (3 males and 3 females) ranged from 6–12 years old (mean and median, 8.6 and 7.5 years, respectively); the dogs weighed 8.7–11.2 kg (mean and median, 10.2 and 10.5 kg, respectively).
The volume of G-Ce6 required to achieve the desired doses was diluted with 0.5% saline to obtain a total injection volume of 10 mL. The full injection volume was intravenously administered over 10 min at a rate of 60 mL/h using an appropriate syringe pump.
Blood samples were collected at 0, 10, and 30 min, and 1, 3, 6, and 24 h after the end of G-Ce6 injection. The samples were mixed with heparin in plastic tubes and centrifuged at 600 × g for 5 min at 4 °C; 0.2 mL of plasma from each centrifuged sample was transferred to Eppendorf tubes. The collected plasma samples were kept in the dark to avoid light exposure until assay initiation. For fluorescence measurement, plasma was read on a Fluorescence Spectrometer SH-9000Lab (excitation, 405 nm and emission, 665 nm; Hitachi High-Technologies Co., Tokyo, Japan). The concentration of G-Ce6 was determined by comparison with appropriate standards. The concentrations of G-Ce6 in the plasma were fitted to a two-compartment model and analyzed with a pharmacokinetic analysis program (http://www.pharm.kyoto-u.ac.jp/byoyaku/Kinetics/download.html). The pharmacokinetic parameters were calculated as follows: half-life (T1/2) = ln 2/β, where β is the slope of the elimination phase; volume of distribution at steady state (Vdss) = dose (A/α^2 + B/β^2)/((A/α) + (B/β))^2, where A and B are the intercepts of the distribution and elimination phases, respectively; α is the slope of the distribution phase; and clearance (CL) = dose/AUC, where AUC is the area under the curve, which was calculated using the trapezoidal method.

[2] = General physical examination and blood analysis in dogs; format: in vivo, healthy beagle dogs; conditions: for ALP / ALT / AST / BUN / Cre / GGT / Glu: Post (1 day after administration)
Procedure: as §1
A general physical examination was performed on all dogs before and after PDT. Serum biochemistry analysis of glucose (Glu), AST, ALT, alkaline phosphatase (ALP), γ-glutamyltranspeptidase (GGT), blood urea nitrogen, and creatinine (Cre) was also performed for all dogs immediately before and 1 day after G-Ce6 administration.

For `CCC1=C(C)c2cc3[nH]c(cc4nc(c(CC(=O)OC)c5[nH]c(cc1n2)c(C)c5C(=O)OC)[C@@H](CCC(=O)OC)[C@@H]4C)c(C)c3C(C)OCCCS[C@@H]1O[C@H](CO)[C@@H](O)[C@H](O)[C@H]1O` (stereo partly drawn) [G-Ce6, Methyl (7S,8S)-18-ethyl-5-(2-methoxy-2-oxoethyl)-7-(3-methoxy-3-oxopropyl)-2,8,12,17-tetramethyl-13-(1-(3-(((2S,3R,4S,5S,6R)-3,4,5-trihydroxy-6-(hydroxymethyl)tetrahydro-2H-pyran-2-yl)thio)propoxy)ethyl)-7H,8H-porphyrin-3-carboxylate], the “G-Ce6-PDT-induced apoptosis and cell death in the presence of Z-VAD-FMK” value (SNP cells) was “could not be blocked”, the “Histological findings 24 h after PDT” value (SNP tumors; 3-h-interval PDT) was “cells at the superficial tumor tissue appeared necrotic, whereas deep-seated tumor cells appeared intact” and the “Histological findings 24 h after PDT” value (SNP tumors; 5-min-interval PDT) was “widespread tumor cells appeared necrotic”. It also gave an AUC ([1]; 5 mg/kg (n = 3)) of 59700 ± 7870 ng·h/mL, a Cmax ([1]; 5 mg/kg (n = 3)) of 47000 ± 12200 ng/mL and a clearance ([1]; 5 mg/kg (n = 3)) of 1.41 mL/min/kg. For the same compound, the half-life ([1]; 5 mg/kg (n = 3)) was 2.84 ± 0.6 h, the Vd ([1]; 5 mg/kg (n = 3)) was 0.258 ± 0.0656 L/kg and the AUC ([1]; 20 mg/kg (n = 1)) was 235000 ng·h/mL. The Cmax ([1]; 20 mg/kg (n = 1)) was 82000 ng/mL, the clearance ([1]; 20 mg/kg (n = 1)) was 1.42 mL/min/kg and the half-life ([1]; 20 mg/kg (n = 1)) was 2.51 h. The Vd ([1]; 20 mg/kg (n = 1)) was 0.284 L/kg, the AUC ([1]; both sexes, 2 mg/kg (n = 6)) was 12000 ± 3180 ng·h/mL and the Cmax ([1]; both sexes, 2 mg/kg (n = 6)) was 15200 ± 4440 ng/mL. It also gave a clearance ([1]; both sexes, 2 mg/kg (n = 6)) of 2.93 mL/min/kg, a half-life ([1]; both sexes, 2 mg/kg (n = 6)) of 3.02 ± 0.58 h and a Vd ([1]; both sexes, 2 mg/kg (n = 6)) of 0.529 ± 0.189 L/kg. The “Changes in serum biochemical parameters” value ([2]; 2 mg/kg i.v.) was “No significant changes”, the “Major skin photosensitivity or acute toxicity (vomiting, diarrhea, salivation)” value ([2]; 2 mg/kg i.v.) was “no evidence” and the “Tolerability in safety examination” value ([2]; 2 mg/kg i.v.) was “well tolerated”. The ALP ([2]; 2 mg/kg i.v.) was 154 ± 59.69 U/L, the ALT ([2]; 2 mg/kg i.v.) was 40 ± 7.17 U/L and the AST ([2]; 2 mg/kg i.v.) was 32 ± 4.72 U/L. The BUN ([2]; 2 mg/kg i.v.) was 15.8 ± 4.20 mg/dL, the Cre ([2]; 2 mg/kg i.v.) was 0.5 ± 0.09 mg/dL and the GGT ([2]; 2 mg/kg i.v.) was 1.5 ± 2.35 U/L. The Glu ([2]; 2 mg/kg i.v.) was 99.5 ± 17.85 mg/dL, the “Changes in serum biochemical parameters” value ([2]; 5 mg/kg i.v.) was “no significant changes” and the “Side effects during administration” value ([2]; 5 mg/kg i.v.) was “Nausea was observed”. The ALP ([2]; 5 mg/kg i.v.) was 141.0 ± 47.04 U/L, the ALT ([2]; 5 mg/kg i.v.) was 59.0 ± 9.52 U/L and the AST ([2]; 5 mg/kg i.v.) was 31.0 ± 10.47 U/L. The BUN ([2]; 5 mg/kg i.v.) was 13.4 ± 5.05 mg/dL, the Cre ([2]; 5 mg/kg i.v.) was 0.5 ± 0.13 mg/dL and the GGT ([2]; 5 mg/kg i.v.) was 5.0 ± 1.63 U/L. For the same compound, the Glu ([2]; 5 mg/kg i.v.) was 96.0 ± 10.88 mg/dL, the “Levels of AST and ALT in blood” value ([2]; 20 mg/kg i.v.) was “Increases” and the “Side effects during administration” value ([2]; 20 mg/kg i.v.) was “vomiting and weakness”. It also gave an ALP ([2]; 20 mg/kg i.v.) of 134.0 U/L, an ALT ([2]; 20 mg/kg i.v.) of 135.0 U/L and an AST ([2]; 20 mg/kg i.v.) of 55.0 U/L. The BUN ([2]; 20 mg/kg i.v.) was 8.6 mg/dL, the Cre ([2]; 20 mg/kg i.v.) was 0.5 mg/dL and the GGT ([2]; 20 mg/kg i.v.) was 14.0 U/L. The Glu ([2]; 20 mg/kg i.v.) was 107.0 mg/dL, the Toxic dose level ([2]; i.v.) was 20 mg/kg and the “Optimal dose, which did not cause any adverse effects” value ([2]; i.v., based on pharmacokinetics and safety examination) was 2 mg/kg.
